The values that follow come from article PMC9119314 (Frontiers in Pharmacology, 2022).

The test system of one data set is A2780/ADR cells. The experiment in a line: Chemosensitivity MTT assay, doxorubicin-resistant A2780/ADR. Type of data set: cell-based. Particulars: Homo sapiens, 96 h, ± SE, read-out: Activity against A2780/ADR cells, IC50. The method, then: (§1) A modified MTT assay was used ([Shnyder et al., 2008]). Cells (2 × 10^4/ml) were inoculated into each well of a 96-well plate and incubated for 24 h at 37°C in a humidified atmosphere containing 5% CO2. Compounds were then added at a range of concentrations to each well, and the plates were then incubated for a further 96 h. After 96 h, the culture medium was removed and 200 μL of 0.5 mg ml^–1 MTT solution (Sigma) in the complete medium was added to each well. Following a further 4 h incubation, the solution was removed from each well and 150 μL of DMSO was added to solubilize the formazan crystals resulting from MTT conversion. The absorbance values for the resulting solutions were read at 540 nm on an Azure 96-well microplate reader (Azure Biosynstems Inc.), and the cell survival was calculated as the absorbance of treated cells divided by the control.
(Formazan colour is commonly taken as a measure of viable cells.)

A further data set deals with A2780/cis cells. Description: Chemosensitivity MTT assay, cisplatin-resistant A2780/CIS. Type of data set: cell-based, human. Particulars: Homo sapiens, A2780cis, 96 h, ± SE, read-out: Activity against A2780/cis cells, IC50. On the procedure:
as §1, with “The chemosensitivity of compounds 3–6 was assessed in the wild-type immortalized human ovarian adenocarcinoma cell line A2780 and its daughter cell lines, which are resistant to the standard cancer chemotherapeutics doxorubicin (A2780/ADR) and cisplatin (A2780/CIS, all cell lines from ECACC, Salisbury, United Kingdom). A modified” for “A modified”

Another data set relates to P. berghei sporozoites. The experiment in a line: P. berghei liver-stage assay (sporozoites in Hep G2-A16-CD81 cells, luciferase). Type of data set: cell-based, Plasmodium berghei. Particulars: for IC50: Plasmodium berghei, HepG2-A16-CD81, sporozoites in Hep G2-A16-CD81 cells, 48 h post infection, ± SE, read-out: Activity against the P. berghei liver stage, IC50. On the procedure: Briefly, 3000 Hep G2-A16-CD81 cells/well were seeded in 1536-well plates (Greiner Bio). 50 nL of the test and control compound diluted in DMSO was added and incubated for 24 h. […] The plates were centrifuged for 5 min at 330 × g and incubated at 37°C. Forty-eight hours post infection, 2 μL of luciferin reagent (Promega BrightGlo) was added to each well, and the luciferase activity was detected using a Perkin Elmer Envision plate reader. […] To counter-screen for cellular toxicity, Hep G2-A16-CD81 cells were seeded as above for the sporozoite liver-stage assay but in the absence of sporozoites. Toxicity measurements were performed by adding Promega CellTiterGlo® (2 μL), followed by luminescence measurements. Curve fitting was done as described above using puromycin (25 μM) as a positive control and DMSO as negative control wells.

The subject of the next data set is P. falciparum 3D7. The experiment in a line: In vitro antiplasmodial activity, P. falciparum 3D7 (SYBR Green I). Type of data set: cell-based. Particulars: Plasmodium falciparum; chloroquine-sensitive strain 3D7, 48 h; read-out: Activity against P. falciparum 3D7, IC50. The method, then:
P. falciparum (3D7 clone) and P. knowlesi (A1-H.1 clone) were maintained in culture in RPMI 1640 supplemented with 25 mM HEPES, 25 mM NaHCO3, 10 mM D-glucose, 2 mM L-glutamine, 50 mg/L hypoxanthine, 25 mg/L gentamicin sulfate, 5 g/L Albumax II, and 10% (v/v) equine serum (Thermo Fisher Scientific, 26-050-088). The P. falciparum (3D7) and P. knowlesi (A1-H.1) parasites were grown in human A^+ red blood cells (National Health Blood and Transplant, United Kingdom). The parasites were incubated in sealed flasks at 37°C under a culture gas mixture of 96% N2, 3% CO2, and 1% O2. ([van Schalkwyk et al., 2019]). The compounds were initially dissolved in DMSO prior to diluting in RPMI. All experiments were initiated using unsynchronized parasites with both the parasitemia and hematocrit set to 1%. Drug susceptibility assays were set up in 96-well, flat-bottom microplates in a final volume of 200 μL, as described previously ([van Schalkwyk et al., 2017]). The controls were included for the background fluorescence (0% viability; parasites exposed to a supralethal 10 μM chloroquine concentration) and 100% growth (parasites in drug-free wells). The plates were incubated for one complete life cycle (27 h for P. knowlesi or 48 h for P. falciparum in vitro) at 37°C in a modular incubation chamber (Billups-Rothenburg Inc.) under the culture gas. Upon termination of the assay, the plates were stored at −20°C overnight. The SYBR Green I fluorescent method was used to measure parasite survival ([Bennett et al., 2004]; [Smilkstein et al., 2004]). After the microplates were thawed, 100 μL from each well was transferred into a duplicate plate. To this was added 100 μL of SYBR green solution [SYBR Green I (Thermo Fisher Scientific, S7563), diluted 1:5000 in a lysis buffer made of 20 mM Tris, 5 mM EDTA, 0.008% (w/v) saponin, 0.08% (v/v) Triton X-100, pH 7.5]. The plates were stored in the dark for 1 h before fluorescence was read at a 490 nm excitation wavelength and a 520 nm emission wavelength on a Spectramax M3 microplate reader (Molecular Devices) ([van Schalkwyk et al., 2017]). The background fluorescence (wells with parasites at 0% viability) was subtracted from all drug assay wells, and the parasite proliferation was determined as a percentage of the fluorescence in the drug-free control wells.

The nature of data set [1]: In vitro activity against T. brucei bloodstream forms (resazurin). Type of data set: cell-based, Trypanosoma brucei. Particulars: human; SI compared with Hep G cells (Table 1); read-out: Selectivity index (SI), T. brucei compared with cytotoxicity to Hep G cells (converted). The method, then:
(§2) Bloodstream form T. brucei (strain 427, derivative 221) was maintained in modified Iscove’s medium, as described previously ([Taylor et al., 2013]). […] The parasites were diluted to 1 × 10^4 ml^−1, the compound was added at a range of concentrations, and the plates were incubated at 37°C in 5% CO2 for 48 h. Resazurin was then added to each well, and the plates were incubated for a further 16 h. Fluorescence intensities were determined using a BMG FLUOstar Omega plate reader (excitation 545 nm, emission 590 nm), and data were analyzed using Graph Pad Prism 9.0 software. […]

Data set [2] concerns T. brucei bloodstream forms (strain 427, derivative 221). The data set is described as above. Type of data set: cell-based, Trypanosoma brucei. Particulars: Trypanosoma brucei, bloodstream forms, hydrochloride salts except 6 (citrate), ± SE; for IC50: 64 h, 48 h + 16 h resazurin. The method, then: as §2
In general terms: Alamar Blue is a resazurin reagent that responds to reducing activity.

The IC90 is the point of the concentration-response curve where the effect stands at 90%. Consider `C[n+]1c2ccccc2cc2[n-]c3c(Br)cc(Br)cc3c21` [Compound 4, 7,9-Dibromocryptolepine], for which the IC50 amounted to 310 ± 60 nM with A2780/ADR cells; 580 ± 100 nM in the data set on A2780/cis cells; 5820 ± 260 nM with P. berghei sporozoites; 760 ± 60 nM in the data set with P. falciparum 3D7; 28.3 ± 0.5 nM in data set [2]. Also, the “Selectivity index (SI), P. berghei liver stage with respect to Hep G cells” value in the data set with P. berghei sporozoites is 1.17. The selectivity ratio at 48 h in data set [1] was 240. In data set [2], the IC90 turned out to be 40.3 ± 6.1 nM.
For the molecule `C[n+]1c2ccccc2cc2[n-]c3c(I)cc(I)cc3c21` [Compound 6, 7,9-diiodocryptolepine], the IC50 is 180 ± 20 nM with A2780/ADR cells; 280 ± 50 nM in the data set with A2780/cis cells; 6130 ± 620 nM in the data set on P. berghei sporozoites; 660 ± 60 nM in the data set on P. falciparum 3D7; 59 ± 13 nM in data set [2]. Further, the “Selectivity index (SI), P. berghei liver stage with respect to Hep G cells” value with P. berghei sporozoites is on record as 4.6. Besides, the selectivity ratio at 48 h in data set [1] was 478. The IC90 in data set [2] is 114 ± 11 nM.
Turning to `C[n+]1c2ccccc2cc2[n-]c3ccc(I)cc3c21` [Compound 5, 7-iodocryptolepine], the IC50 in the data set with A2780/ADR cells was determined as 180 ± 10 nM; in the data set with A2780/cis cells, 310 ± 190 nM; with P. berghei sporozoites, 14600 ± 420 nM; in the data set with P. falciparum 3D7, 92 ± 20 nM; in data set [2], 81.3 ± 2.5 nM. In the data set with P. berghei sporozoites, the “Selectivity index (SI), P. berghei liver stage with respect to Hep G cells” value was 0.46. For the same molecule, the selectivity ratio at 48 h in data set [1] was 82.4. The 90% effect concentration (IC90) in data set [2] turned out to be 113 ± 11 nM.
